Reference: US20060058312A1, “Stabilized aqueous preparation for injection” (priority 2004, published 2006)
Where two headings read alike, the source gives them in different places.

Columns and labels:
[1] = Stability test at 60° C., addition amount of ascorbic acid at pH 8.1 (Example 4), HPLC content; format: physicochemical; conditions: for remaining calcium levofolinate content compared with the initial value (100): 60° C.
Procedure: (§1) For the aqueous preparations obtained in (1) to (3) above, tests evaluating stability at 60° C./3 weeks were performed. The calcium levofolinate content remaining in the aqueous solution was measured using high performance liquid chromatography under the following conditions (the same were employed in the following experiments) 2 ml each of the test preparations were weighed, and 10 ml of the internal standard solution described below (the same was employed in the following experiments) were added thereto. Subsequently, water was added to adjust the total volume of the solution to 50 ml, thereby to prepare a test solution. Meanwhile, 62.5 mg of calcium levofolinate were dissolved in water so as to prepare a 25 ml solution. Then, to 10 ml of the resultant solution were added 10 ml of the internal standard solution, and the total volume of the solution was adjusted to 50 ml by adding water, thereby to prepare a standard solution. For 20 μl of the standard solution and the test solution, the content of calcium levofolinate was measured by the liquid chromatography method under the following conditions.
(§2) 1) Measurement Conditions • Detector: Ultraviolet absorptiometer (Measurement wavelength: 254 nm) • Column: A stainless tube having an internal diameter of 4.0 mm and a length of 15 cm was filled with 5 μm of octadecylsilylated silica gel for liquid chromatography. • Column temperature: A constant temperature near 45° C. • Mobile phase: The pH value of a mixed test solution containing 0.008 mol/L of disodium hydrogen phosphate solution/methanol/40% aqueous tetrabutylammonium hydroxide solution (385:110:1.3 (volume ratio)) was adjusted to 7.5 by adding phosphoric acid. • Flow rate: The flow rate was regulated so that the retention time of calcium levofolinate became about 10 minutes. • Internal standard solution: A solution prepared by adding water to 0.04 g of methyl parahydroxybenzoate so that the whole amount of solution is 100 ml.
About 80 ml of water for injection were added to a beaker (volume: 200 ml). Then 0.56 g of sodium chloride, 0.3 g of tromethamine, and 1.375 g of calcium levofolinate (1.1 g, in terms of 5-formyl-(6S)-tetrahydrofolic acid) were added to it with bubbling of nitrogen gas, and the components were dissolved with stirring (this procedure was performed […]). Subsequently, 0 (no addition), 0.05 g, 0.1 g, 0.3 g, 0.5 g or 1.0 g of ascorbic acid was added to each solution, and was dissolved with stirring, to prepare six solutions. Thereafter, in the case where the addition amount of ascorbic acid is 0 (no addition), 0.05 g, or 0.1 g, the pH value of each solution was adjusted to 8.1 by adding 5% hydrochloric acid dropwise. In the case where the addition amount of ascorbic acid is 0.3 g, 0.5 g, or 1.0 g, the pH value of each solution was adjusted to 8.1 by adding 1% aqueous sodium hydroxide solution dropwise. Water for injection was further added to each solution to adjust the total volume of the solution to 100 ml. Subsequently, the bubbling of nitrogen gas was stopped, and each solution was filtered with a filtration filter, thereby to yield a solution for injection. Subsequently, each of five 5 ml-glass ampules the inside space of which had been substituted by nitrogen gas, was filled with 5 ml of the resultant solution for injection, and it was sealed by heating.
For each aqueous preparation obtained as above, a test evaluating stability at 60° C. was performed by measuring the remaining calcium levofolinate content by the high performance liquid chromatography method.

[2] = format: physicochemical; conditions: buffer, 13 mg/mL, pH 6.2
Procedure: as §1, §2
About 1100 ml of water for injection were added to a beaker. Then, 8.04 g of sodium chloride, 3.6 g of tromethamine, 3.6 g of ascorbic acid, and 1.2 g of sodium pyrosulfite were added thereto with bubbling of nitrogen gas, and the components were dissolved with stirring. To the resultant solution were added 15.62 g of calcium levofolinate, which were dissolved with stirring. Thereafter, the pH value of the solution was adjusted to 6.2 by adding 5% hydrochloric acid solution dropwise. Water for injection was further added to the solution to adjust the total volume to 1200 ml. Subsequently, the bubbling of nitrogen gas was stopped, and the solution was filtered with a filtration filter, thereby to yield a solution for injection. A 5 ml-syringe made of polypropylene, the inside space of which had been substituted by nitrogen gas, was filled with 5 ml of the resultant solution for injection, followed by steam sterilization under high pressure at 105° C. for 30 minutes. The thus-sterilized syringe was packaged together with a deoxidant, AGELESS ZP-50 (trade name, Mitsubishi Gas Chemical Company, Inc. Japan) by using a plastic film with high air impermeability.
For an aqueous preparation as obtained above, a stability test (60° C./75% RH, and 40° C./75% RH) was performed by measuring the content of calcium levofolinate remaining after storage for a certain period by the high performance liquid chromatography method.

[3] = Transmittance and coloring of the aqueous solution during storage; format: physicochemical; conditions: aqueous solution
Description: The suppressing effect can be attained by the action of ascorbic acid which has been stabilized by sodium pyrosulfite.

remaining calcium levofolinate content compared with the initial value (100) ([1]; ascorbic acid 0% (No addition), 1 month): 79.7 | remaining calcium levofolinate content compared with the initial value (100) ([1]; ascorbic acid 0% (No addition), 1 week): 94.1 | remaining calcium levofolinate content compared with the initial value (100) ([1]; ascorbic acid 0% (No addition), 2 weeks): 88.7 | remaining calcium levofolinate content compared with the initial value (100) ([1]; ascorbic acid 0% (No addition), 3 weeks): 86.0 | calcium levofolinate content, Initial value (100) ([1]; ascorbic acid 0% (No addition)): 100 | remaining calcium levofolinate content compared with the initial value (100) ([1]; ascorbic acid 0.05%, 1 month): 82.6 | remaining calcium levofolinate content compared with the initial value (100) ([1]; ascorbic acid 0.05%, 1 week): 96.4 | remaining calcium levofolinate content compared with the initial value (100) ([1]; ascorbic acid 0.05%, 2 weeks): 92.4 | remaining calcium levofolinate content compared with the initial value (100) ([1]; ascorbic acid 0.05%, 3 weeks): 87.3 | calcium levofolinate content, Initial value (100) ([1]; ascorbic acid 0.05%): 100 | remaining calcium levofolinate content compared with the initial value (100) ([1]; ascorbic acid 0.1%, 1 month): 82.2 | remaining calcium levofolinate content compared with the initial value (100) ([1]; ascorbic acid 0.1%, 1 week): 97.4 | remaining calcium levofolinate content compared with the initial value (100) ([1]; ascorbic acid 0.1%, 2 weeks): 93.1 | remaining calcium levofolinate content compared with the initial value (100) ([1]; ascorbic acid 0.1%, 3 weeks): 87.7 | calcium levofolinate content, Initial value (100) ([1]; ascorbic acid 0.1%): 100 | remaining calcium levofolinate content compared with the initial value (100) ([1]; ascorbic acid 0.3%, 1 month): 81.6 | remaining calcium levofolinate content compared with the initial value (100) ([1]; ascorbic acid 0.3%, 1 week): 96.3 | remaining calcium levofolinate content compared with the initial value (100) ([1]; ascorbic acid 0.3%, 2 weeks): 91.3 | remaining calcium levofolinate content compared with the initial value (100) ([1]; ascorbic acid 0.3%, 3 weeks): 86.9 | calcium levofolinate content, Initial value (100) ([1]; ascorbic acid 0.3%): 100 | remaining calcium levofolinate content compared with the initial value (100) ([1]; ascorbic acid 0.5%, 1 month): 80.9 | remaining calcium levofolinate content compared with the initial value (100) ([1]; ascorbic acid 0.5%, 1 week): 96.5 | remaining calcium levofolinate content compared with the initial value (100) ([1]; ascorbic acid 0.5%, 2 weeks): 90.9 | remaining calcium levofolinate content compared with the initial value (100) ([1]; ascorbic acid 0.5%, 3 weeks): 86.0 | calcium levofolinate content, Initial value (100) ([1]; ascorbic acid 0.5%): 100 | remaining calcium levofolinate content compared with the initial value (100) ([1]; ascorbic acid 1.0%, 1 month): 80.3 | remaining calcium levofolinate content compared with the initial value (100) ([1]; ascorbic acid 1.0%, 1 week): 95.4 | remaining calcium levofolinate content compared with the initial value (100) ([1]; ascorbic acid 1.0%, 2 weeks): 89.8 | remaining calcium levofolinate content compared with the initial value (100) ([1]; ascorbic acid 1.0%, 3 weeks): 84.1 | calcium levofolinate content, Initial value (100) ([1]; ascorbic acid 1.0%): 100 | remaining ratio (%) of calcium levofolinate ([2]; 0 months): 100% | remaining ratio (%) of calcium levofolinate ([2]; 0 weeks): 100% | remaining ratio (%) of calcium levofolinate ([2]; 1 month): 101.2% | remaining ratio (%) of calcium levofolinate ([2]; 2 months): 100.2% | remaining ratio (%) of calcium levofolinate ([2]; 4 months): 95.7% | remaining ratio (%) of calcium levofolinate ([2]; 6 months): 92.8% | remaining ratio (%) of calcium levofolinate ([2]; 168 h): 99.0% | remaining ratio (%) of calcium levofolinate ([2]; 336 h): 97.5% | remaining ratio (%) of calcium levofolinate ([2]; 504 h): 95.8% | remaining ratio (%) of calcium levofolinate ([2]; 672 h): 94.3% | transmittance of the aqueous solution during storage [3]: lowers gradually
Structure (SMILES): Nc1nc(=O)c2c([nH]1)NC[C@H](CNc1ccc(C(=O)N[C@@H](CCC(=O)O)C(=O)O)cc1)N2C=O [calcium levofolinate, (6S)-N-[4-[[(2-amino-5-formyl-1,4,5,6,7,8-hexahydro-4-oxo-6-pteridinyl)methyl]amino]benzoyl]-L-glutamic acid]
